From patent US20240109885A1, “2,3-DIHYDRO-1H-PYRROLO[3,2-B]PYRIDINE DERIVATIVE, PREPARATION METHOD THEREFOR, AND APPLICATION THEREOF” (Abbisko Therapeutics Co., Ltd, priority 2020, published 2024)

Assays:
Assay type in all cases: cell-based
[1] = molecular target: Ba/F3 EGFR-V769_D770insASV (Homo sapiens, UniProt P00533, DUP767-769, cells depend on it); test: Cell proliferation assay (CellTiter-Glo), Ba/F3 EGFR-V769_D770insASV cells; settings: 72 hrs, CTG assay, * = average of multiple measurements, read-out: Ba/F3 EGFR-V769_D770insASV (nM), IC50 of cell proliferation
Ba/F3 EGFR-V769_D770insASV, sequence (P00533 with tags, fused parts or gaps DUP767-769): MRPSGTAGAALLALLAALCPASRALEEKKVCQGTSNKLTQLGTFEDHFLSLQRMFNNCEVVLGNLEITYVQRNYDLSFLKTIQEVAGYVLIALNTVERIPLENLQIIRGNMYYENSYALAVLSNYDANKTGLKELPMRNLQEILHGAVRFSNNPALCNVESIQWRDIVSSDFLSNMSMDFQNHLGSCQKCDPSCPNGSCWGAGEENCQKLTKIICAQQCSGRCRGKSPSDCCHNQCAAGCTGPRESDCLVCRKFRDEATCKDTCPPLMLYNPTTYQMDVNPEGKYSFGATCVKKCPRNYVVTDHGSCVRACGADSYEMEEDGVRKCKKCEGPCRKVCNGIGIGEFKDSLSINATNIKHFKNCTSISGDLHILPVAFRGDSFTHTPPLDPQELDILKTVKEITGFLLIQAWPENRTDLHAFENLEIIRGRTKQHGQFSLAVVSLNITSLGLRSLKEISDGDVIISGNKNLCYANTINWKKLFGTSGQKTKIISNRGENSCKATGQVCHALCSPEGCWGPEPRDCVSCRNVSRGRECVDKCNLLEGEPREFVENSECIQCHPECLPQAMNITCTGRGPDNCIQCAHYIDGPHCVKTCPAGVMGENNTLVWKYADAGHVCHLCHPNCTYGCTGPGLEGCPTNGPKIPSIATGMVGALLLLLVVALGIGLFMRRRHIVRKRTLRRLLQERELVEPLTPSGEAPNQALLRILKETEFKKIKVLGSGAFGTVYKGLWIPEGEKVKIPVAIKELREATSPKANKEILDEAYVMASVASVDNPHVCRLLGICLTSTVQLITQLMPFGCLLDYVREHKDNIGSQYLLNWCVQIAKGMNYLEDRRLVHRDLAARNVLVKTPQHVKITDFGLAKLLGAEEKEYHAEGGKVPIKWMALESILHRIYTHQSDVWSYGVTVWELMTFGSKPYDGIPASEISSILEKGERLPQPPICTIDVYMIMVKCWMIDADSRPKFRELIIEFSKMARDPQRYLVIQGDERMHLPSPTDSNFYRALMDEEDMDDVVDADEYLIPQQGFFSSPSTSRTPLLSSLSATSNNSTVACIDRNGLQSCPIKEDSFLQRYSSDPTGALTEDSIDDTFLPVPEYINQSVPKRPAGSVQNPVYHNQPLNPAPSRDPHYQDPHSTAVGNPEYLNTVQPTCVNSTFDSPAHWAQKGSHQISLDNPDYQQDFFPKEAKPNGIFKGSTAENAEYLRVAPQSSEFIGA
Description: (§1) I. Cell proliferation assay (i) Reagents and consumables • Fetal bovine serum (FBS) (GBICO, Cat #10099-141); • CellTiter-Glo® Luminescent Cell Viability Assay Kit (Promega, Cat #G7572); • Black transparent flat-bottomed 96-well plate (Corning®, Cat #3603).
(§2) • SpectraMax Multi-Label Microplate Detector MD, 2104-0010A; • CO2 incubator, Thermo Scientific 3100 Series; • Biosafety cabinet, Thermo Scientific, 1300 Series type A2; • Inverted microscope, Olympus, CKX41SF; • Siemens refrigerator KK25E76TI. (iii) Cell lines and culture conditions
(§3) (iv) Experimental procedures 1. Cell culture and seeding: • (1) Cells in the logarithmic growth phase were harvested, and counted using a platelet counter. Cell viability was detected by the trypan blue exclusion assay to ensure that the cell viability was above 90%. • (2) The cell concentration was adjusted to achieve the final density; and 90 μL of the cell suspension was added to the 96-well plate. • (3) The cells were incubated in the 96-well plate overnight at 37° C. in the presence of 5% CO2 with 95% humidity. 2. TO benchmark data: • (1) 10 μL of PBS was added to each well of the TO flat plate containing the cells. • (2) The CTG reagent was thawed, and the cell plate was equilibrated to room temperature for 30 min. • (3) An equal volume of CTG solution was added to each well. • (4) The cells were shaken for 5 min on an orbital shaker for lysis. • (5) The cell plate was left at room temperature for 20 min to stabilize luminescent signals. • (6) The values of TO luminescent signals were read. 3. Compound dilution and addition • (1) According to the compound information table, a corresponding volume of DMSO was added to the corresponding compound powder to prepare a 10 mM stock solution. • (2) Compound solutions diluted at 1000 fold and 3.16 fold were prepared. • (3) The compound solution diluted at 1000 fold was diluted at 100 fold with PBS, to prepare the compound solutions at 10 fold in 9 concentrations, with the maximum concentration of […]; and the compound solution was diluted at 3.16 fold. 10 μL of medicament solution was added to each well of the seeded 96-well plate. Three replicate wells were provided for each concentration of the compound, and the final concentration of DMSO was 0.1%. • (4) Cells were placed in the 96-well plate containing the medicament and subsequently cultured for 72 hrs at 37° C. in the presence of 5% CO2 with 95% humidity, and then, CTG assay was conducted. 4. Reading of luminescent signals • (1) The CTG reagent was thawed, and the cell plate was equilibrated to room temperature for 30 min. • (2) An equal volume of CTG solution was added to each well. • (3) The cells were shaken for 5 min on an orbital shaker for lysis.
(§4) (4) The cell plate was left at room temperature for 20 min to stabilize the luminescent signals. • (5) Luminescent values were read. Data processing
(§5) The data were analyzed using software GraphPad Prism 7.0, and fitted by the nonlinear S-curve regression to obtain a dose-effect curve, based on which the IC50 value (unit: nM) was calculated, with the specific test results shown in Table 1.
(§6) Cell viability (%)=(Lum test medicament-Lum culture medium control)/(Lum cell control-Lum culture medium control)×100%.

[2] = molecular target: Ba/F3 EGFR-D770-N771ins_SVD (Homo sapiens, UniProt P00533, DUP768-770, cells depend on it); test: Cell proliferation assay (CellTiter-Glo), Ba/F3 EGFR-D770-N771ins_SVD cells; settings: 72 hrs, CTG assay, * = average of multiple measurements, read-out: Ba/F3 EGFR-D770-N771ins_SVD (nM), IC50 of cell proliferation
Ba/F3 EGFR-D770-N771ins_SVD, sequence (P00533 with tags, fused parts or gaps DUP768-770): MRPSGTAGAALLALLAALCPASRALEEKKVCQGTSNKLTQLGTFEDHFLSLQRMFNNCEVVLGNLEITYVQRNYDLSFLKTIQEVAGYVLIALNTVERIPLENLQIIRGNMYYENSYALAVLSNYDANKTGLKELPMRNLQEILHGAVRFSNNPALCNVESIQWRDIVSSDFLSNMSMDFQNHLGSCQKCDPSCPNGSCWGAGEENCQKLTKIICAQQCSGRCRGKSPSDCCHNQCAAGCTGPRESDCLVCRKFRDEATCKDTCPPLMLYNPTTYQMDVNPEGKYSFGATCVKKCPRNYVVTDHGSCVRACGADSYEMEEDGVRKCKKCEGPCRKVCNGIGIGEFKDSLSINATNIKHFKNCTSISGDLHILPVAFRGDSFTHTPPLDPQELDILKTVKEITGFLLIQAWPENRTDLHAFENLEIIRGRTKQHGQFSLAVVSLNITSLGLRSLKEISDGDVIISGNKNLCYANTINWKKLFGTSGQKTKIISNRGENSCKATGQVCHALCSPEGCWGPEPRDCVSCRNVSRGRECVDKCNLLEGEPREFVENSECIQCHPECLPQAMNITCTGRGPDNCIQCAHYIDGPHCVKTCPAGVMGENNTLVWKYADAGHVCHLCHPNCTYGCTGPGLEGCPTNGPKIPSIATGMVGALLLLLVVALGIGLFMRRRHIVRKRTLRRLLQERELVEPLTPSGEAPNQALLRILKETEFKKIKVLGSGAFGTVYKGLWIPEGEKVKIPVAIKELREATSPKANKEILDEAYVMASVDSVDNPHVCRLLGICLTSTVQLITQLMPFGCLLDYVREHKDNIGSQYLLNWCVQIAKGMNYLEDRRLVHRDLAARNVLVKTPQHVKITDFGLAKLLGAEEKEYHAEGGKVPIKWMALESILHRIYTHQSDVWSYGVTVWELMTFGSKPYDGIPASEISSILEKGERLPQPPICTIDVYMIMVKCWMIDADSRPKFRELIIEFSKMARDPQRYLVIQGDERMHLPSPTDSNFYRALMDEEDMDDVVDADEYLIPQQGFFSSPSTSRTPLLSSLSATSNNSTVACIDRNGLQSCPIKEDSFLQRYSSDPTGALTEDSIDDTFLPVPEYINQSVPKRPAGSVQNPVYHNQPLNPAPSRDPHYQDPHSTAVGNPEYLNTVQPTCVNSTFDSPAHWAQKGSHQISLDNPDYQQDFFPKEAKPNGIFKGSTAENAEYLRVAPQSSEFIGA
Description: as §1, §2, §3, §4, §5, §6

A431 (EGFR-WT) = test: Cell proliferation assay (CellTiter-Glo), A431 cells; settings: Homo sapiens, A-431, 72 hrs, CTG assay, * = average of multiple measurements
Description: as §1, §2, §3, §4, §5, §6

| SMILES | GI50 [1] [nM] | GI50 [2] [nM] | IC50 (A431 (EGFR-WT)) [nM] |
| --- | --- | --- | --- |
| C=CC(=O)Nc1cc(Nc2cc(N3CC(C)(C)c4ncccc43)ccn2)c(OC)cc1N(C)CCN(C)C [Example 1, N-(5-((4-(3,3-dimethyl-2,3-dihydro-1H-pyrrolo[3,2-b]pyridin-1-yl)pyridin-2-yl)amino)-2-((2-(dimethylamino)ethyl)(methyl)amino)-4-methoxyphenyl)acrylamide] | 69.8 | 60.2 | 898 |
| C=CC(=O)Nc1cc(Nc2cc(N3CC(C)(C)c4nc(C)ccc43)ccn2)c(OC)cc1N(C)CCN(C)C [Example 2, N-(2-((2-(dimethylamino)ethyl) (methyl)amino)-4-methoxy-5-((4-(3,3,5-trimethyl-2,3-dihydro-1H-pyrrolo[3,2-b]pyridin-1-yl)pyridin-2-yl)amino)phenyl)acrylamide] | 97.9 | 60.4 | 1070 |
| C=CC(=O)Nc1cc(Nc2cc(N3CC(C)(C)c4nc(C)ccc43)ccn2)c(OC)cc1N1CCC[C@@H]1CN(C)C [Example 3] | 111 | 66.3 | 841 |
| C=CC(=O)Nc1cc(Nc2cc(N3CC(C)(C)c4ncccc43)ccn2)c(OC)cc1N1CCC[C@@H]1CN(C)C [Example 4, (R)-N-(5-((4-(3,3-dimethyl-2,3-dihydro-1H-pyrrolo[3,2-b]pyridin-1-yl)pyridin-2-yl)amino)-2-(2-((dimethylamino)methyl)pyrrolidin-1-yl)-4-methoxyphenyl)acrylamide] | 83.1 | 47.2 | 964 |
| COc1cc(N(C)CCN(C)C)c(N)cc1Nc1nccc(N2CC(C)(C)c3ncc(-c4c(F)cccc4F)cc32)n1 [Example 18, N^4-(4-(6-(2,6-difluorophenyl)-3,3-dimethyl-2,3-dihydro-1H-pyrrolo [3,2-b]pyridin-1-yl)pyrimidin-2-yl)-N^1-(2-(dimethylamino)ethyl)-5-methoxy-N^1-methylbenzene-1,2,4-triamine] | 142 | 60 |  |
| C=CC(=O)Nc1cc(Nc2nccc(N3CC(C)(C)c4ncc(-c5ccccc5F)cc43)n2)c(OC)cc1N(C)CCN(C)C [Example 19, N-(2-((2-(dimethylamino)ethyl) (methyl)amino)-5-((4-(6-(2-fluoro-phenyl)-3,3-dimethyl-2,3-dihydro-1H-pyrrolo[3,2-b]pyridin-1-yl)pyrimidin-2-yl)amino)-4-methoxy-phenyl)acrylamide] | 142 | 41.6 |  |
| C=CC(=O)Nc1cc(Nc2cc(N3CC(C)(C)c4nc5c(cc43)CCC5)ncn2)c(OC)cc1N(C)CCN(C)C [Example 26, N-(5-((6-(3,3-dimethyl-3,5,6,7-tetrahydrocyclopenta[b]pyrrolo[2,3-e]pyridin-1(2H)-yl)pyrimidin-4-yl)amino)-2-((2-(dimethylamino)ethyl)(methyl)amino)-4-methoxy-phenyl)acrylamide] | 76.1 | 22.9 |  |
| C=CC(=O)Nc1cc(Nc2cc(N3CC(C)(C)c4nc(C)c(C)cc43)ncn2)c(OCC)cc1N(C)CCN(C)C [Example 35, N-(2-((2-(dimethylamino)ethyl) (methyl)amino)-4-ethoxy-5-((6-(3,3,5,6-tetramethyl-2,3-dihydro-1H-pyrrolo[3,2-b]pyridin-1-yl)pyrimidin-4-yl)amino)phenyl)acrylamide] | 94.8 | 40.1 |  |
| C=CC(=O)Nc1cc(Nc2nccc(N3CC(C)(C)c4nc(-n5cncc5C)ccc43)n2)c(OC)cc1N(C)CCN(C)C [Example 59, N-(5-((4-(3,3-dimethyl-5-(5-methyl-1H-imidazole-1-yl)-2,3-dihydro-1H-pyrrolo[3,2-b]pyridin-1-yl)pyrimidin-2-yl)amino)-2-((2-(dimethylamino)ethyl)(methyl)amino)-4-methoxyphenyl)acrylamide] | 139 | 43.8 |  |

More lines, now with the values ahead:

| GI50 [1] [nM] | GI50 [2] [nM] | IC50 (A431 (EGFR-WT)) [nM] | SMILES |
| --- | --- | --- | --- |
| 31.4 | 26.6 | 411 | C=CC(=O)Nc1cc(Nc2nccc(N3CC(C)(C)c4nc(C)ccc43)n2)c(OC)cc1N(C)CCN(C)C [Example 5, N-(2-((2-(dimethylamino)ethyl) (methyl)amino)-4-methoxy-5-((4-(3,3,5-trimethyl-2,3-dihydro-1H-pyrrolo[3,2-b]pyridin-1-yl)pyrimidin-2-yl)amino)phenyl)acrylamide] |
| 26.6 | 13.8 |  | C=CC(=O)Nc1cc(Nc2nccc(N3CC(C)(C)c4nc5c(cc43)CCC5)n2)c(OC)cc1N(C)CCN(C)C [Example 23, N-(5-((4-(3,3-dimethyl-3,5,6,7-tetrahydrocyclopenta[b]pyrrolo[2,3-e]pyridin-1(2H)-yl)pyrimidin-2-yl)amino)-2-((2-(dimethylamino)ethyl)(methyl)amino)-4-methoxy-phenyl)acrylamide] |
| 106 | 56.5 |  | C=CC(=O)Nc1cc(Nc2ncnc(N3CC(C)(C)c4nc(C)ccc43)n2)c(OCC)cc1N(C)CCN(C)C [Example 25, N-(2-((2-(dimethylamino)ethyl) (methyl)amino)-4-ethoxy-5-((4-(3,3,5-trimethyl-2,3-dihydro-1H-pyrrolo[3,2-b]pyridin-1-yl)-1,3,5-triazin-2-yl)amino)phenyl)acrylamide] |
| 68.8 | 31.5 |  | C=CC(=O)Nc1cc(Nc2nccc(N3CC(C)(C)c4nc(C)c(C)cc43)n2)c(OCC)cc1N(C)CCN(C)C [Example 27] |
| 51.5 | 33.2 |  | C=CC(=O)Nc1cc(Nc2nccc(N3CC4(CCCCC4)c4nc(C)ccc43)n2)c(OC(F)F)cc1N(C)CCN(C)C [Example 36, N-(4-(difluoromethoxy)-2-((2-(dimethylamino)ethyl)(methyl)amino)-5-((4-(5′-methylspiro[cyclohexane-1,3′-pyrrolo[3,2-b]pyridin]-1′(2′H)-yl)pyrimidin-2-yl)amino)phenyl)acrylamide] |
| 159 | 92.2 |  | C=CC(=O)Nc1cc(Nc2ncnc(N3CC(C)(C)c4nc(C)ccc43)n2)c(OC(C)C)cc1N(C)CCN(C)C [Example 37, N-(2-((2-(dimethylamino)ethyl) (methyl)amino)-4-isopropoxy-5-((4-(3,3,5-trimethyl-2,3-dihydro-1H-pyrrolo[3,2-b]pyridin-1-yl)-1,3,5-triazin-2-yl)amino)phenyl)acrylamide] |
| 266 | 124 |  | C=CC(=O)Nc1cc(Nc2nccc(N3CC(C)(C)c4nc(C)ccc43)n2)c(OC(C)C)cc1N(C)CCN(C)C [Example 38, N-(2-((2-(dimethylamino)ethyl) (methyl)amino)-4-isopropoxy-5-((4-(3,3,5-trimethyl-2,3-dihydro-1H-pyrrolo[3,2-b]pyridin-1-yl)pyrimidin-2-yl)amino)phenyl)acrylamide] |
|  | 25.2 | 1020 | C=CC(=O)Nc1cc(Nc2nccc(N3CC4(CCCC4)c4nc(C)ccc43)n2)c(OCC(F)(F)F)nc1N(C)CCN(C)C [Example 49, N-(2-((2-(dimethylamino)ethyl) (methyl)amino)-5-((4-(5′-methyl-spiro[cyclopentane-1,3′-pyrrolo[3,2-b]pyridin]-1′(2′H)-yl)pyrimidin-2-yl)amino)-6-(2,2,2-trifluoroethoxy)pyridin-3-yl)acrylamide] |
|  | 83.6 |  | C=CC(=O)Nc1cc(Nc2nccc(N3CC4(CC(F)(F)C4)c4nc(C)ccc43)n2)c(OC)cc1N(C)CCN(C)C [Example 74, N-(5-((4-(3,3-difluoro-5′-methyl-spiro[cyclobutane-1,3′-pyrrolo[3,2-b]pyridin]-1′(2′H)-yl)pyrimidin-2-yl)amino)-2-((2-(dimethylamino)ethyl)(methyl)amino)-4-methoxy-phenyl)acrylamide] |
